Patent publication US8343696B2, “Colored curable composition, fluorine-containing dipyrromethene compound and tautomer thereof, and fluorine-containing dipyrromethene metal complex and tautomer thereof, and color filter using the same and method for producing the color filter” (FUJIFILM Corporation, priority 2008, dated 2013)
Each block holds one compound with its values, some of them ahead of it.

Assays:
Assay type in all cases: physicochemical
[1] = Absorption spectrum in ethyl acetate solution (spectrophotometer UV-2400PC)
Procedure: In consideration of film thickness, the molar absorption coefficient of the specific metal complex compounds-1, -2, -3 and -4 of the invention is preferably as high as possible, and 60,000 or higher is preferable. The maximum absorption wavelength (λmax) thereof is preferably from 520 nm to 580 nm, and more preferably from 530 nm to 570 nm, in order to improve color purity. The maximum absorption wavelength and the molar absorption coefficient are determined by using a spectrophotometer UV-2400PC (manufactured by Shimadzu Corporation).
The molar absorption coefficient (ε) of each of the obtained compounds was measured in an ethyl acetate solution using a spectrophotometer (trade name: UV-2400PC; manufactured by Shimadzu Corporation). The absorbance (Abs) at 450 nm was evaluated by normalizing the absorbance at a maximum absorption wavelength (λmax) to 1.0. […] The measurement results of the absorbance (Abs value), maximum absorption wavelength (λmax), and molar absorption coefficient (ε) are shown in Table 1.
By the method similar to the reaction scheme in Synthesis Example 1 above, the exemplary compounds (dipyrromethene metal complex compounds or tautomers thereof) shown in Table 1 were synthesized. The identification of the compounds and the measurement of the maximum absorption wavelength (λmax) and the molar absorption coefficient (ε) of the compounds were performed similarly to Synthesis Example 1 above.

[2] = Heat resistance of coating film (color difference ΔEab before and after heating); conditions: 100° C. for 1 hour on hot plate
Procedure: A glass substrate having undercoat layer formed by applying the colored resin composition obtained in section 3 above was heat-treated at 100° C. for 1 hour using a hot plate, and the color difference (ΔEab) between before and after the heating was determined by using a […] MCPD-1000 (trade name, manufactured by Otsuka Electronics Co., Ltd.). The heat resistance was evaluated according to the following criteria. A smaller AEab value indicates better heat resistance.
(§1) A: ΔEab value was less than 6
(§2) B: ΔEab value was from 6 to 10
(§3) C: ΔEab value was more than 10

[3] = Storage stability of colored resist solution (precipitation after one month at room temperature); design: key: A: No precipitation was observed; B: Slight precipitation was observed; C: Precipitation was observed; conditions: negative-working colored resist solution, visual precipitation
Description: 9.4 g of the resist solution obtained in section 1 above and 0.35 g of the exemplary compound Ia-12 synthesized above (a compound represented by Formula (4): dipyrromethene complex compound) were mixed and dissolved, whereby a colored resist solution (a negative-working ultraviolet-sensitive colored curable composition) was obtained.
The colored resist solution was stored for one month at room temperature, and then degree of precipitation was visually observed. The storage stability was evaluated according to the following criteria.
A: No precipitation was observed
B: Slight precipitation was observed
C: Precipitation was observed

[4] = Light-fastness of coating film (color difference ΔEab before and after xenon lamp irradiation); conditions: xenon lamp 20,000 luxes for 10 hours (200,000 lux·h)
Procedure: A glass substrate having undercoat layer formed by applying the colored resin composition obtained in section 3 above was irradiated with a xenon lamp at an intensity of 20,000 luxes for 10 hours (equivalent to 200,000 lux·h), and the color difference ΔEab between before and after the irradiation was determined. The light-fastness was evaluated according to the following criteria. A smaller ΔEab value indicates better light-fastness.
as §1, §2, §3

[5] = Transmittance at 450 nm of the color filter; conditions: negative-working colored resist, 1.0 μm film; transmittance at λmax normalized to 2%
Procedure: The colored resist solution obtained in section 3 above was applied to an undercoat layer side of the glass substrate having an undercoat layer obtained in section 2 above by a spin coater such that a film thickness was 1.0 μm. Subsequently, the film was pre-baked at 100° C. for 120 sec, whereby a monochromatic color filter was obtained.
The transmission spectrum of the color filter obtained above was measured, and the transmittance at 450 nm was evaluated according to the following criteria. The transmittance of the color filter at 450 nm was evaluated by correcting (normalizing) the transmittance at the maximum absorption wavelength of the colorant included in the color filter to 2%. A larger transmittance indicates greater transmission of blue light, which indicates favorable magenta or violet color that can be used in a blue filter.
A: Transmittance at 450 nm was 90% or more
B: Transmittance at 450 nm was 80% or more but not more than 90%
C: Transmittance at 450 nm was not more than 80%

maximum absorption wavelength (λmax) [1]: 566 nm | molar absorption coefficient (ε) [1]: 91,500 | Abs value at 450 nm when normalized to Abs = 1.0 at λmax [1]: 0.0116 | Heat resistance [2]: A (ΔEab value was less than 6) | Storage stability [3]: B | Light-fastness [4]: A (ΔEab value was less than 6)
Compound: CC1CC(C(C)(C)C)C(OC(=O)c2c(-c3ccccc3)c3[n](c2NC(=O)c2cc(F)ccc2NS(C)(=O)=O)[Zn-]([OH])[N+]2=C(NC(=O)C(C)Sc4cc(C(=O)O)cc(C(=O)O)c4)C(C#N)=C(c4ccccc4)C2=C3)C(C(C)(C)C)C1 (stereo not drawn) [Ib-49]
Transmittance at 450 nm [5]: A (Transmittance at 450 nm was 90% or more)

maximum absorption wavelength (λmax) [1]: 560 nm | molar absorption coefficient (ε) [1]: 87,600 | Abs value at 450 nm when normalized to Abs = 1.0 at λmax [1]: 0.0112 | Heat resistance [2]: A (ΔEab value was less than 6) | Storage stability [3]: A | Light-fastness [4]: A (ΔEab value was less than 6)
Compound: Cc1c(C(=O)OC2C(C(C)(C)C)CC(C)CC2C(C)(C)C)c(NC(=O)c2cccc(C(F)(F)F)c2)[n]([Zn][OH])c1C=C1N=C(NC(=O)C(C)(C)C)C(C#N)=C1c1ccccc1 (stereo not drawn) [Ia-14]
Transmittance at 450 nm [5]: A (Transmittance at 450 nm was 90% or more)

maximum absorption wavelength (λmax) [1]: 558 nm | molar absorption coefficient (ε) [1]: 91,000 | Abs value at 450 nm when normalized to Abs = 1.0 at λmax [1]: 0.091 | Heat resistance [2]: A (ΔEab value was less than 6) | Storage stability [3]: A | Light-fastness [4]: A (ΔEab value was less than 6)
Compound: Cc1c(C(=O)OC2C(C(C)(C)C)CC(C)CC2C(C)(C)C)c(NC(=O)c2cccc(C(F)(F)F)c2)[n]2c1C=C1C(c3ccccc3)=C(C#N)C(NC(=O)C(C)Sc3cc(C(=O)O)cc(C(=O)O)c3)=[N+]1[Zn-]2[OH] (stereo not drawn) [Ia-15]
Transmittance at 450 nm [5]: A (Transmittance at 450 nm was 90% or more)

maximum absorption wavelength (λmax) [1]: 562 nm | molar absorption coefficient (ε) [1]: 87,100 | Abs value at 450 nm when normalized to Abs = 1.0 at λmax [1]: 0.0089 | Heat resistance [2]: A (ΔEab value was less than 6) | Storage stability [3]: A | Light-fastness [4]: A (ΔEab value was less than 6)
Compound: CC1CC(C(C)(C)C)C(OC(=O)c2c(-c3ccccc3)c3[n](c2NC(=O)c2cccc(C(F)(F)F)c2)[Zn-]([OH])[N+]2=C(NC(=O)C(C)Sc4cc(C(=O)O)cc(C(=O)O)c4)C(C#N)=C(c4ccccc4)C2=C3)C(C(C)(C)C)C1 (stereo not drawn) [Ib-15]
Transmittance at 450 nm [5]: A (Transmittance at 450 nm was 90% or more)

maximum absorption wavelength (λmax) [1]: 563 nm | molar absorption coefficient (ε) [1]: 100,500 | Abs value at 450 nm when normalized to Abs = 1.0 at λmax [1]: 0.0082 | Heat resistance [2]: A (ΔEab value was less than 6) | Storage stability [3]: A | Light-fastness [4]: A (ΔEab value was less than 6)
Compound: CC1CC(C(C)(C)C)C(OC(=O)c2c(-c3ccccc3)c3[n](c2NC(=O)c2ccc(F)c(Br)c2)[Zn-]([OH])[N+]2=C(NC(=O)C(C)Sc4cc(C(=O)O)cc(C(=O)O)c4)C(C#N)=C(c4ccccc4)C2=C3)C(C(C)(C)C)C1 (stereo not drawn) [Ib-53]
Transmittance at 450 nm [5]: A (Transmittance at 450 nm was 90% or more)

The remaining lines, values behind:

Compound: CC1CC(C(C)(C)C)C(OC(=O)C2=C(c3ccccc3)C3=Cc4c(-c5ccccc5)c(C(=O)OC5C(C(C)(C)C)CC(C)CC5C(C)(C)C)c(NC(=O)c5cc(F)ccc5NS(C)(=O)=O)[n]4[Zn-]([OH])[N+]3=C2NC(=O)c2cc(F)ccc2NS(C)(=O)=O)C(C(C)(C)C)C1 (stereo not drawn) [IIb-20]
maximum absorption wavelength (λmax) [1]: 565 nm | molar absorption coefficient (ε) [1]: 121,000 | Abs value at 450 nm when normalized to Abs = 1.0 at λmax [1]: 0.082 | Heat resistance [2]: A (ΔEab value was less than 6) | Storage stability [3]: A | Light-fastness [4]: A (ΔEab value was less than 6) | Transmittance at 450 nm [5]: A (Transmittance at 450 nm was 90% or more)

Compound: CC1CC(C(C)(C)C)C(OC(=O)C2=C(c3ccccc3)C3=Cc4c(-c5ccccc5)c(C(=O)OC5C(C(C)(C)C)CC(C)CC5C(C)(C)C)c(NC(=O)c5ccc(F)c(F)c5)[n]4[Zn-]([OH])[N+]3=C2NC(=O)c2ccc(F)c(F)c2)C(C(C)(C)C)C1 (stereo not drawn) [IIb-13]
maximum absorption wavelength (λmax) [1]: 560 nm | molar absorption coefficient (ε) [1]: 106,300 | Abs value at 450 nm when normalized to Abs = 1.0 at λmax [1]: 0.0107 | Heat resistance [2]: A (ΔEab value was less than 6) | Storage stability [3]: A | Light-fastness [4]: A (ΔEab value was less than 6) | Transmittance at 450 nm [5]: A (Transmittance at 450 nm was 90% or more)

Compound: CC1=C(C(=O)OC2C(C(C)(C)C)CC(C)CC2C(C)(C)C)C(NC(=O)c2ccc(C(F)(F)F)cc2)=[N+]2C1=Cc1c(C)c(C(=O)OC3C(C(C)(C)C)CC(C)CC3C(C)(C)C)c(NC(=O)c3ccc(C(F)(F)F)cc3)[n]1[Zn-]2[OH] (stereo not drawn) [IIa-7]
maximum absorption wavelength (λmax) [1]: 554 nm | molar absorption coefficient (ε) [1]: 111,800 | Abs value at 450 nm when normalized to Abs = 1.0 at λmax [1]: 0.0089 | Heat resistance [2]: A (ΔEab value was less than 6) | Storage stability [3]: A | Light-fastness [4]: A (ΔEab value was less than 6) | Transmittance at 450 nm [5]: A (Transmittance at 450 nm was 90% or more)

Compound: CC1CC(C(C)(C)C)C(OC(=O)C2=C(c3ccccc3)C3=Cc4c(-c5ccccc5)c(C(=O)OC5C(C(C)(C)C)CC(C)CC5C(C)(C)C)c(NC(=O)c5ccc(OC(F)(F)F)cc5)[n]4[Zn-]([OH])[N+]3=C2NC(=O)c2ccc(OC(F)(F)F)cc2)C(C(C)(C)C)C1 (stereo not drawn) [IIb-8]
maximum absorption wavelength (λmax) [1]: 561 nm | molar absorption coefficient (ε) [1]: 92,600 | Abs value at 450 nm when normalized to Abs = 1.0 at λmax [1]: 0.0135 | Heat resistance [2]: A (ΔEab value was less than 6) | Storage stability [3]: A | Light-fastness [4]: A (ΔEab value was less than 6) | Transmittance at 450 nm [5]: A (Transmittance at 450 nm was 90% or more)

Compound: CC1CC(C(C)(C)C)C(OC(=O)C2=C(c3ccccc3)C3=Cc4c(-c5ccccc5)c(C(=O)OC5C(C(C)(C)C)CC(C)CC5C(C)(C)C)c(NC(=O)c5cccc(C(F)(F)F)c5)[n]4[Zn-]([OH])[N+]3=C2NC(=O)c2cccc(C(F)(F)F)c2)C(C(C)(C)C)C1 (stereo not drawn) [IIb-6]
maximum absorption wavelength (λmax) [1]: 560 nm | molar absorption coefficient (ε) [1]: 114,000 | Abs value at 450 nm when normalized to Abs = 1.0 at λmax [1]: 0.0079 | Heat resistance [2]: A (ΔEab value was less than 6) | Storage stability [3]: A | Light-fastness [4]: A (ΔEab value was less than 6) | Transmittance at 450 nm [5]: A (Transmittance at 450 nm was 90% or more)

Compound: CC1CC(C(C)(C)C)C(OC(=O)C2=C(c3ccccc3)C3=Cc4c(-c5ccccc5)c(C(=O)OC5C(C(C)(C)C)CC(C)CC5C(C)(C)C)c(NC(=O)c5c(F)c(F)c(C(=O)O)c(F)c5F)[n]4[Zn-]([OH])[N+]3=C2NC(=O)c2c(F)c(F)c(C(=O)O)c(F)c2F)C(C(C)(C)C)C1 (stereo not drawn) [IIb-38]
maximum absorption wavelength (λmax) [1]: 561 nm | molar absorption coefficient (ε) [1]: 105,900 | Abs value at 450 nm when normalized to Abs = 1.0 at λmax [1]: 0.0099 | Heat resistance [2]: A (ΔEab value was less than 6) | Storage stability [3]: A | Light-fastness [4]: A (ΔEab value was less than 6) | Transmittance at 450 nm [5]: A (Transmittance at 450 nm was 90% or more)

Compound: CC1CC(C(C)(C)C)C(OC(=O)C2=C(c3ccccc3)C3=Cc4c(-c5ccccc5)c(C(=O)OC5C(C(C)(C)C)CC(C)CC5C(C)(C)C)c(NC(=O)c5cc(F)c(F)c(F)c5)[n]4[Zn-]([OH])[N+]3=C2NC(=O)c2cc(F)c(F)c(F)c2)C(C(C)(C)C)C1 (stereo not drawn) [IIb-32]
maximum absorption wavelength (λmax) [1]: 559 nm | molar absorption coefficient (ε) [1]: 91,400 | Abs value at 450 nm when normalized to Abs = 1.0 at λmax [1]: 0.0143 | Heat resistance [2]: A (ΔEab value was less than 6) | Storage stability [3]: A | Light-fastness [4]: A (ΔEab value was less than 6) | Transmittance at 450 nm [5]: A (Transmittance at 450 nm was 90% or more)
